Measurements from PubChem BioAssay AID732 (Emory University Molecular Libraries Screening Center, 2007).
Values joined by “and” are separate entries in the source; they are usually repeats but may differ in a detail not shown here. Equal entries are not always repeated. Active and inactive are the calls of the source. How the calls were made is not given here.

Test system: in vivo angiogenesis, blood vessel count
Assay: angiogenesis inhibition in living animals, in vivo study, HTS (AID 732);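 further: zebrafish embryos dosed at one day post fertilization; 0% = reference inhibitor and 100% = plate mean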
Conditions: active compounds read low;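 tested at 30 µM in the well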

Structure (SMILES)	vessel count % control
O=Nc1c(-c2c(O)[nH]c3ccccc23)[nH]c2ccccc12	15.6%
Cc1ccc(O)c(N=Nc2ccccc2)n1	112% (inactive)
O=P(O)(O)C(Cl)(Cl)P(=O)(O)O	110% (inactive)
O=C(O)/C=C/c1cnc[nH]1	108% (inactive)
NCCCCCCNS(=O)(=O)c1cccc2c(Cl)cccc12	117% (inactive)
CCCC[N+]1(C)C2CC(OC(=O)[C@H](CO)c3ccccc3)CC1C1OC12 (stereo partly drawn)	107% (inactive)
NN=C(N)N	92.2% (inactive) and 80.5% (inactive)
CN(C)C(N)=NCCC[C@H](N)C(=O)O	93.3% (inactive)
OCc1cnc[nH]1	106% (inactive)
C[C@@H]1C(=O)NC2=Nc3cccc(Cl)c3CN21	119% (inactive)
Nc1nc(SCc2ccc([N+](=O)[O-])cc2)c2ncn([C@@H]3O[C@H](CO)[C@H](O)C3O)c2n1 (stereo partly drawn)	112% (inactive)
COC(=O)Nc1nc2ccc(C(=O)c3cccs3)cc2[nH]1	150% (inactive)
CC(C)C[C@H](N)CSSC[C@@H](N)CC(C)C	39.2% (inactive)
OC1(c2ccc(Cl)cc2)CCN(Cc2c[nH]c3ccccc23)CC1	96.6% (inactive)
O=c1cc(O)cc(/C=C/c2ccc(O)c(O)c2)o1	122% (inactive)
CCn1c(=O)[nH]c2cc(Cl)c(Cl)cc21	87.7% (inactive)
O=C(O)CCCc1ccc(N(CCCl)CCCl)cc1	118% (inactive)
CCCn1c(C)c(C(=O)c2ccc3ccccc3c2)c2ccccc21	110% (inactive)
CC(=O)O[C@H]1C[C@@H]2CC[C@@H]3[C@H](CC[C@@]4(C)[C@H]3C[C@H]([N+]3(C)CCCCC3)[C@@H]4OC(C)=O)[C@@]2(C)C[C@@H]1[N+]1(C)CCCCC1	98% (inactive)
NC(N)=NC(N)=Nc1ccccc1	72.6% (inactive)
NC[C@@H]1O[C@H](C23CC4CC(CC(C4)C2)C3)Cc2c1ccc(O)c2O	110% (inactive)
CC1CC2C3CCC4=CC(=O)C=C[C@]4(C)[C@@]3(F)[C@@H](O)C[C@]2(C)[C@@]1(O)C(=O)CO (stereo partly drawn)	129% (inactive)
COc1ccc([C@@H]2Sc3ccccc3N(CCN(C)C)C(=O)[C@@H]2OC(C)=O)cc1	107% (inactive)
COc1ccc2c(c1O)-c1cccc3c1[C@@H](C2)N(C)CC3	90.5% (inactive)
CC1=C(/C=C/C(C)=C/C=C/C(C)=C\C(=O)O)C(C)(C)CCC1	76.1% (inactive)

Structure (SMILES)	vessel count % control
CCCN1CCc2cccc3c2[C@H]1Cc1ccc(O)c(O)c1-3	89.9% (inactive)
CN(N=O)c1cc(O)ccc1O	88% (inactive)
CCCCCCCC/C=C\CCCCCCCC(=O)NCCO	102% (inactive)
COc1cc2c(cc1O)CC[C@@H]1[C@@H]2CC[C@]2(C)[C@@H](O)CC[C@@H]12	83.1% (inactive)
CCCN(CCc1ccccc1)C1CCc2c(O)cccc2C1 (stereo not drawn)	88.9% (inactive)
Clc1ccc(N2CCN(Cc3c[nH]c4ncccc34)CC2)cc1	83.7% (inactive)
COc1cccc2c1[C@@H]1CN(CCCCn3c(=O)[nH]c4c(sc5ncc(-c6ccccc6)nc54)c3=O)C[C@@H]1CO2	87.9% (inactive)
Nc1ncn([C@@H]2O[C@H](CO)[C@@H](O)[C@H]2O)c(=O)n1	65.2% (inactive)
COC1=C(OC)C(=O)c2ccccc2C1=O	115% (inactive)
CCCN1CCC[C@@H]2Cc3nc(N)ncc3C[C@H]21	107% (inactive)
O=c1c(-c2ccc(O)cc2)coc2cc(O)ccc12	105% (inactive)
CCN1CCc2nc(N)oc2CC1	96.4% (inactive)
C[N+]1(C)CCOC(O)(c2ccc(-c3ccc(C4(O)C[N+](C)(C)CCO4)cc3)cc2)C1 (stereo not drawn)	103% (inactive)
Cc1cc2c(cc1Cl)N(C(=O)Nc1ccnc3ccccc13)CC2	108% (inactive)
NC(=O)c1ncn([C@@H]2O[C@H](CO)[C@@H](O)[C@H]2O)n1	63.2% (inactive)
C[C@]12CCC(=O)C=C1CC[C@@H]1[C@@H]2CC[C@@]2(C)[C@H]1CC[C@]2(O)C(=O)CO	106% (inactive)
COc1ccccc1N1CCN(CCCCNC(=O)c2ccc3ccccc3c2)CC1	52% (inactive)
O=C(O)Cc1ccc(O)c(O)c1	107% (inactive)
C1COC(NC(C2CC2)C2CC2)=N1	100% (inactive)
CCC1(C2=NCCN2)Cc2ccccc2O1 (stereo not drawn)	68.5% (inactive)
O=c1[nH]c2ccccc2n1CCCN1CCN(C(c2ccccc2)c2ccccc2)CC1	120% (inactive)
CC1COc2c(N3CCN(C)CC3)c(F)cc3c(=O)c(C(=O)O)cn1c23 (stereo not drawn)	74.9% (inactive)
NCC1(CC(=O)O)CCCCC1	98.7% (inactive)
CCCCCC(O)c1cccc(OCc2ccc3ccccc3n2)c1 (stereo not drawn)	83.4% (inactive)
Nc1ncnc2c1ncn2[C@@H]1O[C@H](C(=O)NC2CC2)[C@H](O)C1O (stereo partly drawn)	102% (inactive)

Structure (SMILES)	vessel count % control
O=c1c(O)c(-c2cc(O)c(O)c(O)c2)oc2cc(O)cc(O)c12	87.9% (inactive)
Oc1[nH]c2c(Cl)cc(Cl)cc2c1C1=Nc2ccc(Br)cc2/C1=N\OCCN1CCCC1	93.4% (inactive)
O=C1c2ccccc2-c2n[nH]c3cccc1c23	107% (inactive)
N=C(N)c1ccc(N)cc1	114% (inactive)
N=c1ccn2c(n1)OC1[C@@H](O)[C@@H](CO)O[C@H]12 (stereo partly drawn)	78.4% (inactive)
CCN(CC)CCNC(=O)c1ccc(NC(C)=O)cc1	117% (inactive)
CCN(CC)C(=S)SSC(=S)N(CC)CC	0% (inactive)
O=C1C(c2c(O)[nH]c3c(Cl)cc(Cl)cc23)=Nc2ccc(Br)cc21	123% (inactive)
CC(=O)NNC(=O)N1Cc2ccccc2Oc2ccc(Cl)cc21	0% (inactive)
O=C(O)c1cccnc1C(=O)O	88.1% (inactive)
Cc1ccc(=O)n(-c2ccccc2)c1	92.7% (inactive)
Cc1cccc(/C=C/c2ccccc2)n1	74.2% (inactive)
O=[N+]([O-])c1cc(O)c(O)c([N+](=O)[O-])c1	89.3% (inactive)
O=C(O)c1cc2cc(Cc3cccnc3)ccc2o1	100% (inactive)
COc1cccc(C(=O)NCCN2CCN(c3ccc(Cl)cc3)CC2)c1	66.6% (inactive)
Cn1cc(C(F)(F)F)nc1-c1ccc(OCC(O)CNCCOc2ccc(O)c(C(N)=O)c2)cc1 (stereo not drawn)	82.4% (inactive)
O=C1C(c2c(O)[nH]c3c(Cl)cc(Cl)cc23)=Nc2ccccc21	60.2% (inactive)
CCCCCCCCCCC/C=C\C(C)(C)/C=C\CCCC(=O)O	79.5% (inactive)
COc1cc(Cc2cnc(N)nc2N)cc(OC)c1OC	114% (inactive)
CC1(C)CCC=[N+]1[O-]	85.7% (inactive)
CN1C2CCC1CC(OC(c1ccccc1)c1ccccc1)C2 (stereo not drawn)	91.6% (inactive)
C[N+](C)(C)CCCCCCCCCC[N+](C)(C)C	100% (inactive)
Brc1c(NC2=NCCN2)ccc2nccnc12	104% (inactive)
CN(N=O)c1ccc(O)c(O)c1	96.8% (inactive)
Nc1ncnc2c1c(-c1ccc(Oc3ccccc3)cc1)cn2C1CCCC1	77.9% (inactive)

Structure (SMILES)	vessel count % control
NC(N)=NCCCCN=C(N)N	88% (inactive)
CC1=C[C@@H]2c3cccc4[nH]cc(c34)C[C@H]2N(C)C1	81.3% (inactive)
CN[C@H](CC(C)C)C(=O)N[C@H]1C(=O)N[C@@H](CC(N)=O)C(=O)N[C@H]2C(=O)N[C@H]3C(=O)N[C@H](C(=O)N[C@H](C(=O)O)c4cc(O)cc(O)c4-c4cc3ccc4O)[C@H](O)c3ccc(c(Cl)c3)Oc3cc2cc(c3O[C@@H]2O[C@H](CO)[C@@H](O)[C@H](O)[C@H]2O[C@H]2C[C@](C)(N)[C@H](O)[C@H](C)O2)Oc2ccc(cc2Cl)[C@H]1O	103% (inactive)
CCCn1cnc2c1c(=O)n(CCCCC(C)=O)c(=O)n2C	107% (inactive)
Cc1nnc(SCC2=C(C(=O)O)N3C(=O)[C@@H](NC(=O)Cn4cnnn4)[C@H]3SC2)s1	90.8% (inactive)
CN1C(C)(C)CCCC1(C)C	106% (inactive)
CC(C)CC(NP(=O)(O)O[C@@H]1O[C@@H](C)[C@H](O)[C@@H](O)[C@H]1O)C(=O)NC(Cc1c[nH]c2ccccc12)C(=O)O (stereo partly drawn)	118% (inactive)
CCOC(=O)C(C)(C)Oc1ccc(Cl)cc1	55.4% (inactive)
S=C(Nc1ccccc1)Nc1nccs1	61.2% (inactive)
Cc1cn[nH]c1	87.3% (inactive)
NCCCCC(=O)O	84.3% (inactive)
CCCN1CCO[C@@H]2c3cc(O)ccc3OC[C@H]21	69.9% (inactive) and 97.2% (inactive)
CCCc1c(-c2ccc(O)cc2)nn(-c2ccc(O)cc2)c1-c1ccc(O)cc1	106% (inactive)
Cc1ccc([N+](=O)[O-])cc1S(=O)(=O)N(C)C	108% (inactive)
N#CC(C#N)=Cc1ccc([N+](=O)[O-])c(O)c1	88.6% (inactive)
OC[C@H]1O[C@@H](n2cnc3c(NC4CCCCC4)ncnc32)[C@H](O)[C@@H]1O	104% (inactive)
Oc1ccccc1O	96.4% (inactive)
O=c1[nH]ccc2c(O)cccc12	0% (inactive)
CCCN(CCC)C(=O)C(CCC(=O)O)NC(=O)c1ccccc1 (stereo not drawn)	103% (inactive)
CC(C)Cc1ccc(C(C)C(=O)O)cc1 (stereo not drawn)	138% (inactive)
OC[C@H]1O[C@@H](n2cnc3c(Nc4ccccc4)ncnc32)C(O)[C@H]1O (stereo partly drawn)	110% (inactive)
Cc1ccc(/C(=C\CN2CCCC2)c2ccccn2)cc1	80% (inactive)
Clc1cccc(Cl)c1NC1=NCCN1	121% (inactive)
